pIC50: −log10 of the molar value. The source made the active and inactive calls.

Data set [1] concerns the target Fibroblast growth factor receptor 1 (Homo sapiens, UniProt P11362).
Description: Inhibition of FGFR1 (unknown origin)
The target in data set [2] is Fibroblast growth factor receptor 4 (Homo sapiens, UniProt P22455).
Description: Inhibition of FGFR4 (445 to 753 residues) (unknown origin) expressed in Escherichia coli
The subject of data set [3] is Huh-7. Description: cells. The settings on record: Homo sapiens.
Description: Antiproliferative activity against human Huh-7 cells measured after 24 to 48 hrs by MTT assay
The nature of data set [4]: Antiproliferative activity against human L02 cells measured after 24 to 48 hrs by MTT assay. It counts as toxicity, cell-based. For orientation: Formazan colour is commonly taken as a measure of viable cells.
The subject of data set [5] is Hep 3B2. Briefly: Antiproliferative activity against human Hep3B cells measured after 24 to 48 hrs by MTT assay. The class given is functional, cell-based.
Data set [6] deals with HepG2. Briefly: Antiproliferative activity against human HepG2 cells measured after 24 to 48 hrs by MTT assay. It counts as functional, cell-based.
For data set [7], the system named is Huh-7. Description: Inhibition of colony formation in human Huh-7 cells assessed as reduction in number of colonies at 270 nM measured for 12 days. It counts as functional, cell-based. Particulars: time 12.0 day.
In data set [8] the test system is BaF3. Description: cells. Particulars: Mus musculus.
Description: Antiproliferative activity against mouse BaF3 cells harbouring ETV6-FGFR4-V550L mutant measured after 24 to 48 hrs by MTT assay
The subject of data set [9] is BaF3. Briefly: cells. Particulars: Mus musculus. This is another data set of the same source.
Description: Antiproliferative activity against mouse BaF3 cells harbouring ETV6-FGFR4-N535K mutant measured after 24 to 48 hrs by MTT assay
The nature of data set [10]: Metabolic stability in liver microsomes (unknown origin) assessed as half life. The class given is ADME, Microsome. (In general: Microsomes from liver hold many membrane-bound enzymes, among them those of drug oxidation.)

Chain of Fibroblast growth factor receptor 4 (P22455 whole entry): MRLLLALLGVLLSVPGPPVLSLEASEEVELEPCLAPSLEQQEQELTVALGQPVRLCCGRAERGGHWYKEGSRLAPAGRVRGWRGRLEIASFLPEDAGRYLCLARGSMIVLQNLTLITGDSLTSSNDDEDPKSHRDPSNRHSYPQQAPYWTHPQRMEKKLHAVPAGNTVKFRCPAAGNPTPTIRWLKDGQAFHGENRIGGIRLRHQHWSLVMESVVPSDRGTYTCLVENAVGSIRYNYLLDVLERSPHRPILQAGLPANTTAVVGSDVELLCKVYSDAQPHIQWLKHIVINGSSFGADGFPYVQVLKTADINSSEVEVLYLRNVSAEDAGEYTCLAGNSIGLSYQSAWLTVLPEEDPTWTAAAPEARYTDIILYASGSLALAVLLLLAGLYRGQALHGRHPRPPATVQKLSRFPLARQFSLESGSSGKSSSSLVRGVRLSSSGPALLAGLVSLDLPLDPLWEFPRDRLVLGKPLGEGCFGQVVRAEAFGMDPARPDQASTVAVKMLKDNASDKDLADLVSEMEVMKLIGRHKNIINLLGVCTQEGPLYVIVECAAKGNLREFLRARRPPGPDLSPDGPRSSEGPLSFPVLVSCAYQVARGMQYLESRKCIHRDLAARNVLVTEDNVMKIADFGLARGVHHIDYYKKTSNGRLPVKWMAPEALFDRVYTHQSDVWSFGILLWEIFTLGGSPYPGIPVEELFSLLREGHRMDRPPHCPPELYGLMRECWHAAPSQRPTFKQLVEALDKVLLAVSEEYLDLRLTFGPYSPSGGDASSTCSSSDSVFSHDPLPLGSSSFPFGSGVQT
Chain of Fibroblast growth factor receptor 1 (P11362 whole entry): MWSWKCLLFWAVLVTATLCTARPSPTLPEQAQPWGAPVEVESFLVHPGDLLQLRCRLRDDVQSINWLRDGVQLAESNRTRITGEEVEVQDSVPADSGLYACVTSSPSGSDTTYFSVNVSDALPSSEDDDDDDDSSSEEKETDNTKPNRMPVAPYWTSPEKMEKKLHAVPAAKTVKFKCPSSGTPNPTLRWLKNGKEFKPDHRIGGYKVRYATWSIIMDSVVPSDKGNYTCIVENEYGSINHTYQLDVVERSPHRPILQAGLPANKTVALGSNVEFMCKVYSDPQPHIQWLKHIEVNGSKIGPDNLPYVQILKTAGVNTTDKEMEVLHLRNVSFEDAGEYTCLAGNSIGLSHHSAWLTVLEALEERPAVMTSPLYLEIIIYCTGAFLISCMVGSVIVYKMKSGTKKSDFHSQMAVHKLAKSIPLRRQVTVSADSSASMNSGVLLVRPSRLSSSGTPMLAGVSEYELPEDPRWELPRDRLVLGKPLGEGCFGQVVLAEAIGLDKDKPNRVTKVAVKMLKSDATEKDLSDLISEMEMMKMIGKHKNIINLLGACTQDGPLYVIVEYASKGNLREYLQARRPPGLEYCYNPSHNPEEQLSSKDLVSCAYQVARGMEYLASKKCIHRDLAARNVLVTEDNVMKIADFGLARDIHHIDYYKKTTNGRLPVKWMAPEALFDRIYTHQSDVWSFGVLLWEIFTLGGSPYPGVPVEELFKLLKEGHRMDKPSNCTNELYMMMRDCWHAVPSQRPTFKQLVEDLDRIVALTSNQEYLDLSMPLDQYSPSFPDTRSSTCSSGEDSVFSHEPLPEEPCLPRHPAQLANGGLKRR

In general, pIC50 refers to the negative decadic logarithm of the IC50, by convention in mol/L. A high value points to a low IC50. On to `C=CC(=O)Nc1ccc(F)cc1-c1n[nH]c2ccc(O[C@H](C)c3c(Cl)cncc3Cl)cc12`, for which the negative logarithm of the IC50 (pIC50) in data set [1] was < 5.52; in data set [2], 8.49; in [3], 6.49.
Turning to `C=CC(=O)Nc1ccccc1-c1n[nH]c2ccc(O[C@@H](C)c3c(Cl)cncc3Cl)cc12`, the pIC50 in [3] was < 5.52.
With `C=CC(=O)Nc1cc2c(cc1-c1n[nH]c3ccc(O[C@H](C)c4c(Cl)cncc4Cl)cc13)CN(CCOC)C2`, the pIC50 was < 5.52 in data set [1], 8.49 in data set [2] and 6.71 in [3].
In the case of `C=CC(=O)Nc1ccccc1-c1n[nH]c2ccc(OCc3c(Cl)cncc3Cl)cc12`, the pIC50 in [1] was < 5.52; in data set [2], 7.57; in [3], 6.12.
On to `C=CC(=O)N[C@H]1CCOC[C@H]1Nc1ncc2cc(-c3c(Cl)c(OC)cc(OC)c3Cl)ccc2n1` [FISOGATINIB], for which the pIC50 is < 5.00 in [4]; 7.34 in [5]; 5.35 in data set [6]; 5.99 in [1]; 8.41 in data set [2]; 6.40 in [8]. The same compound gave a pIC50 in data set [9] of 6.28. Further, in [7], the inhibition result was “Active”.
Turning to `C=CC(=O)Nc1cc2c(cc1-c1n[nH]c3ccc(O[C@H](C)c4c(Cl)cncc4Cl)cc13)CN(C)C2`, the negative logarithm of the IC50 (pIC50) in data set [1] is < 5.52; in [2], 8.57; in data set [3], 7.30.
For the compound `C=CC(=O)Nc1ccccc1-c1n[nH]c2ccc(OC(C)c3c(Cl)cccc3Cl)cc12` (stereo not drawn), the negative-log IC50 (pIC50) was 6.60 in [2] and < 5.52 in [3].
For `C=CC(=O)Nc1ccccc1-c1n[nH]c2ccc(OCc3ccccn3)cc12` the same measures were 6.32 and < 5.52.
For `C=CC(=O)Nc1cc2c(cc1-c1n[nH]c3ccc(O[C@H](C)c4c(Cl)cncc4Cl)cc13)CN(C(=O)OC(C)(C)C)C2`, the figures for the pIC50 in data set [1] and in [3] were < 5.52 and 6.07, respectively.
For `C=CC(=O)Nc1ccccc1-c1n[nH]c2ccc(O[C@H](C)c3c(Cl)cncc3Cl)cc12` the same measures were < 5.52 and 7.10.
Regarding `C=CC(=O)Nc1ccccc1-c1n[nH]c2ccc(OC(C)c3c(Cl)cncc3Cl)cc12` (racemic), the negative-log IC50 (pIC50) in data set [1] was < 5.52; in data set [3] it was 6.66.
The half-life is the time needed for the level to fall by half in the phase considered. On to `C=CC(=O)Nc1cc(N2CCN(C)CC2)ccc1-c1n[nH]c2ccc(O[C@H](C)c3c(Cl)cncc3Cl)cc12`, for which the half-life in data set [10] was determined as 3.8 min. Moreover, the negative-log IC50 (pIC50) in data set [4] is 5.40; in [1] it was < 5.52; in [2], 8.74; in data set [3], 7.92; in data set [8], 8.70.
As to `C=CC(=O)Nc1ccc(N2CCN(C)CC2)cc1-c1n[nH]c2ccc(O[C@H](C)c3c(Cl)cncc3Cl)cc12`, the half-life in [10] amounted to 2.41 min. Moreover, the negative logarithm of the IC50 (pIC50) in data set [4] was 5.37; in data set [1] it was < 5.52; in [2], 8.68; in data set [3], 7.82; in data set [8], 9.00.
Regarding `C=CC(=O)Nc1ccccc1-c1n[nH]c2ccc(OCc3cccnc3)cc12`, the negative logarithm of the IC50 (pIC50) in data set [1] is < 5.52; in data set [2], 7.08; in data set [3], < 5.52.
For the compound `C=CC(=O)Nc1cc2c(cc1-c1n[nH]c3ccc(O[C@H](C)c4c(Cl)cncc4Cl)cc13)CCN(CCOC)C2`, the results for the negative-log IC50 (pIC50) in data set [1], in data set [2] and in [3] were < 5.52, 8.60 and 7.27, respectively.
For `C=CC(=O)Nc1cc2c(cc1-c1n[nH]c3ccc(O[C@H](C)c4c(Cl)cncc4Cl)cc13)CN(C)CC2` the same measures were < 5.52, 8.51 and 6.88.
For `C=CC(=O)Nc1cc2c(cc1-c1n[nH]c3ccc(O[C@H](C)c4c(Cl)cncc4Cl)cc13)CN(CCO)CC2` the same measures were < 5.52, 8.21 and 6.56.
On to `C=CC(=O)Nc1ccccc1-c1n[nH]c2ccc(OCc3c(Cl)cccc3Cl)cc12`, for which the pIC50 in [2] is 6.12; in data set [3], < 5.52.
For the compound `C=CC(=O)Nc1ccccc1-c1n[nH]c2ccc(OC(C)c3ccncc3)cc12` (stereo not drawn), the results for the negative logarithm of the IC50 (pIC50) in [1], in data set [2] and in [3] were < 5.52, 6.77 and < 5.52, respectively.
Consider `C=CC(=O)Nc1ccccc1-c1n[nH]c2ccc(OCc3ccncc3)cc12`, for which the pIC50 is 6.61 in data set [2] and < 5.52 in data set [3].
With `C=CC(=O)Nc1cc2c(cc1-c1n[nH]c3ccc(O[C@H](C)c4c(Cl)cncc4Cl)cc13)CN(CCOC)CC2`, the negative-log IC50 (pIC50) in data set [1] was < 5.52; in data set [2], 8.01; in [3], 6.12.
For `C=CC(=O)Nc1cc2c(cc1-c1n[nH]c3ccc(O[C@H](C)c4c(Cl)cncc4Cl)cc13)CN(S(C)(=O)=O)C2` the same measures were < 5.52, 8.46 and 7.32.
The like results for `C=CC(=O)Nc1cc(F)ccc1-c1n[nH]c2ccc(O[C@H](C)c3c(Cl)cncc3Cl)cc12` were, in that order, < 5.52, 8.46 and 6.72.
With `C=CC(=O)Nc1cc2c(cc1-c1n[nH]c3ccc(O[C@H](C)c4c(Cl)cncc4Cl)cc13)CCN(CCO)C2`, in data set [10], the half-life stood at 3.04 min. The pIC50 in [4] was < 5.00; in data set [1], < 5.52; in [2] it was 8.59; in data set [3], 7.52; in data set [8] it was 9.00.
As for `C=CC(=O)Nc1cc(N2CCOCC2)ccc1-c1n[nH]c2ccc(O[C@H](C)c3c(Cl)cncc3Cl)cc12`, the half-life in data set [10] was found to be 1.37 min. Besides, the negative-log IC50 (pIC50) is < 5.00 in data set [4]; < 5.52 in data set [1]; 8.66 in data set [2]; 7.77 in data set [3]; 8.70 in data set [8].
Consider `C=CC(=O)Nc1ccc(N2CCOCC2)cc1-c1n[nH]c2ccc(O[C@H](C)c3c(Cl)cncc3Cl)cc12`, for which, in [10], the half-life was determined as 2.73 min. The pIC50 in data set [4] was < 5.00; in data set [1] it was < 5.52; in data set [2] it was 8.60; in [3], 7.70; in data set [8], 8.52.
With `C=CC(=O)Nc1cccc(-c2n[nH]c3ccc(O[C@H](C)c4c(Cl)cncc4Cl)cc23)c1`, the results for the pIC50 in data set [1], in [2] and in data set [3] were < 5.52, 5.92 and 5.61, respectively.
For `C=CC(=O)Nc1cc2c(cc1-c1n[nH]c3ccc(O[C@H](C)c4c(Cl)cncc4Cl)cc13)CN(CCO)C2` the same measures were < 5.52, 8.72 and 7.17.
With `C=CC(=O)Nc1ccccc1-c1n[nH]c2ccc(OC(C)c3c(F)cncc3F)cc12` (stereo not drawn), the negative-log IC50 (pIC50) was < 5.52 in data set [1], 7.38 in [2] and 5.90 in data set [3].

The values are drawn from ChEMBL document CHEMBL5620430, “Design, synthesis and biological evaluation of indazole derivatives as selective covalent inhibitors of FGFR4 in wild-type and gatekeeper mutants” (Eur J Med Chem, 2023).
